Experimental data as given in patent US8497278B2, “Imidazo[1,2-a]pyridine compounds” (priority 2008, dated 2013).

Key:
[1] = target: T1, α5 subtype containing GABA-A receptors (Homo sapiens, UniProt P18507+P31644); assay: Two-electrode voltage clamp electrophysiology in Xenopus oocytes, potentiation of GABA EC20 response, α5; assay type: cell-based; details: 100 nM compound, read-out: Percentage of potentiation alpha5
T1 construct: expressed in transfected cells; host or cells: Xenopus laevis oocytes, cRNA injected
Procedure: (§1) Electrophysiology protocol: Oocytes were prepared from adult female Xenopus laevis frogs. cRNA encoding human α1, α2, α3, α5, β3 and γ2L GABAA receptor subunits was injected into the cytoplasm of stage 5 or 6 oocytes using the Robocyte Robot (Multi Channel Systems, Reutlingen, Germany). Two-electrode voltage clamp recordings were made in 96-well plates using the Robocyte Robot. Oocytes were impaled using recording heads with two glass electrodes containing 1.5 M potassium acetate and 0.5 M KCl and held at a membrane potential of −80 mV. Oocytes were continually perfused with a ND96 solution (96 mM NaCl, 2 mM KCl, 0.1 mM CaCl2, and 5 mM HEPES, pH 7.5) using a Gilson 222 XL Liquid Handler and Gilson Minipuls 3 Peristaltic Pump (Gilson Medical Electronics, Middleton, Wis., USA). The protocol consisted of three 20-s applications of GABA that gave a 20% of the maximum response (EC20: 60 μM) to allow for headroom to determine a baseline GABA response. To assess the potentiation, oocytes were first exposed to a single 1 μM chlordiazepoxide (CDP) as a potentiation standard. Oocytes with insufficient expression levels (currents below threshold) or insufficient γ2L subunit incorporation (judged by rapid desensitization upon GABA application, or by insufficient potentiation by CDP) were not included in analysis. Following this control application, a given oocyte was exposed to test compounds at 100 nM concentrations. Only one concentration of one compound was tested per oocyte. […] One skilled in the art will recognize that subtypes contribute to the effects of GABA-A modulators. Such that compounds favoring different subtypes can have different therapeutic effects. The magnitude of modulation, for example, partial modulators can influence the effects in vivo. “++” indicates a greater modulation that “+” so that at any given subtype “++” inducates a greater amount of modulation for that subtype. In some embodiments, modulation favoring alpha 1 relative to alpha2 and/or alpha 3 can have sedative hypnotic effects. In other embodiments, compounds with reduced selectivity of alpha 1 can express anxiolytic effects with less sedation. Compounds with selectivity for alpha 5 can have memory/cognition enhancing effects.

[2] = system: central benzodiazepine receptors; assay: Central benzodiazepine receptor binding (test of Speth et al.); details: 1000 nM of the compound
Outline: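 Radioligand binding by the Speth et al. method. Specific binding is total minus nonspecific binding, the latter measured with excess unlabelled ligand. Compounds screened at 1.0E-09, 1.0E-07 and 1.0E-05 M in single determination; values given as percent inhibition at 1000 nM compound.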

[3] = target: T2, α3 subtype containing GABA-A receptors (Homo sapiens, UniProt P18507+P34903); assay: Two-electrode voltage clamp electrophysiology in Xenopus oocytes, potentiation of GABA EC20 response, α3; assay type: cell-based; details: 100 nM compound, read-out: Percentage of potentiation alpha3
T2 construct: expressed in transfected cells; host or cells: Xenopus laevis oocytes, cRNA injected
Procedure: as §1

[4] = target: T3, α2 subtype containing GABA-A receptors (Homo sapiens, UniProt P18507+P47869); assay: Two-electrode voltage clamp electrophysiology in Xenopus oocytes, potentiation of GABA EC20 response, α2; assay type: cell-based; details: 100 nM compound, read-out: Percentage of potentiation alpha2
T3 construct: expressed in transfected cells; host or cells: Xenopus laevis oocytes, cRNA injected
Outline: (§2)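 Potentiation of the GABA EC20 current by 100 nM compound is the read-out, recorded by two-electrode voltage clamp at −80 mV in oocytes carrying human α1, α2, α3 or α5 with β3 and γ2L. Baseline came from three 20-s applications of 60 μM GABA.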

[5] = target: T4, α1 subtype containing GABA-A receptors (Homo sapiens, UniProt P14867+P18507); assay: Two-electrode voltage clamp electrophysiology in Xenopus oocytes, potentiation of GABA EC20 response, α1; assay type: cell-based; details: 100 nM compound, read-out: Percentage of potentiation alpha1
T4 construct: expressed in transfected cells; host or cells: Xenopus laevis oocytes, cRNA injected
Outline: as §2

[6] = system: Wistar rats; assay: Vogel conflict test; assay type: in vivo; details: rat, 60 min before test, 3 minute test
Procedure: Vogel Conflict Test Protocol: The Vogel conflict test is an animal model of anxiety described by Vogel et al. (1971). In this test, water deprived animals are placed in a cage with free access to a drinking bottle. Whenever the animal drinks, an electric shock is administered. Animals punished during drinking rapidly cease to drink. Anxiolytic drugs decrease the effect of punishment and increase the number of shocks accepted by the rats in this conflict situation. Male Wistar rats were used in these studies. Rats were deprived of water for approximately 48 hours and then placed individually into a transparent Plexiglas enclosure with a floor consisting of stainless steel bars spaced 1 cm apart. The back wall of the enclosure was made of opaque Plexiglas thereby concealing the observer from the experimental animal. In the center of the opposite wall, 5 cm above the floor, a metal water spout protruded into the cage and was connected to one pole of a shock generator. The other pole of the shock generator was connected to the metal grid floor. The rat is left to explore until it finds the water spout. Then, every time it drinks, it receives an electric shock (1.7 mA, 1 sec duration) 2 seconds after it starts drinking The number of punished drinks is counted during a 3 minute test. Ten rats are studied per treatment group. Clobazam (64 mg/kg) was used as the positive control. Compounds of the present invention, vehicle (45% hydroxypropyl beta-cyclodextrin) and clobazam were administered orally to all groups (n=10 […] per group) 60 minutes prior to behavioral testing. All data were analyzed using unpaired Student's t-tests. An effect was considered significance if p<0.05.

T4 sequence (P14867 28-456): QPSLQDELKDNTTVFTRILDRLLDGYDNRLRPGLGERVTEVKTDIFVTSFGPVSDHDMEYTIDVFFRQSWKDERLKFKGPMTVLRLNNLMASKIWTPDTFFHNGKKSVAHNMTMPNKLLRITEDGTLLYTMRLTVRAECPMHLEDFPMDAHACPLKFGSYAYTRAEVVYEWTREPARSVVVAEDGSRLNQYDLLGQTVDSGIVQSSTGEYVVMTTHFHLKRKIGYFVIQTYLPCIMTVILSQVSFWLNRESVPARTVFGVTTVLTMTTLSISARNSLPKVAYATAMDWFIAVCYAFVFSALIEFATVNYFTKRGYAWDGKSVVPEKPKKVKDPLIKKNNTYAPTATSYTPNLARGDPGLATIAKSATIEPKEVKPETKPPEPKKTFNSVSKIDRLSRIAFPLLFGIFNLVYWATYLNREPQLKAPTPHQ
T4 sequence (P28472 26-473 partner): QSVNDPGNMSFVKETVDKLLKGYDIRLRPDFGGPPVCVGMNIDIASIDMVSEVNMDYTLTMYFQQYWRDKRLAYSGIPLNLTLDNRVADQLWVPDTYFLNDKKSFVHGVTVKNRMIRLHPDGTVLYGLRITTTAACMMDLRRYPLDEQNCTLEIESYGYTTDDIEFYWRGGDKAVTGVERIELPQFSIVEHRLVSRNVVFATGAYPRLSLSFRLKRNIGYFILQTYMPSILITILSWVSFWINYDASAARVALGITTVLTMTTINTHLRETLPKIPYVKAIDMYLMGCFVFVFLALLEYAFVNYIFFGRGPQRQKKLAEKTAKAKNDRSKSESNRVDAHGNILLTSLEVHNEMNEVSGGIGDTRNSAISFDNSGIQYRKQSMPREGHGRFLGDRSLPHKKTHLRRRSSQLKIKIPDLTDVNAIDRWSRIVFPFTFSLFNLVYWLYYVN
T4 sequence (P18507 40-475): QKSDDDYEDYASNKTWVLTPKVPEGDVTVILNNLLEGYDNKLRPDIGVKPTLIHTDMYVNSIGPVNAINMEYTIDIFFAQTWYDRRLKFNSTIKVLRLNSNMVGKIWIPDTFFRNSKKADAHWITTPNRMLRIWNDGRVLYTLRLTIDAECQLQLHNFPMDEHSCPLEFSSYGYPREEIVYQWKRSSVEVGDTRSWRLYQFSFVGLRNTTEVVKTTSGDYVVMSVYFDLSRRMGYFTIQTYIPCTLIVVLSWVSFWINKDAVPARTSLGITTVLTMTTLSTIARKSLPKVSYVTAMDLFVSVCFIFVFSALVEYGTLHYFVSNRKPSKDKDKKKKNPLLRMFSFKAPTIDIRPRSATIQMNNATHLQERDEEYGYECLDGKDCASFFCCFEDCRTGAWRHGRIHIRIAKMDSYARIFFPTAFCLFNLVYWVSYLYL
T3 sequence (P47869 29-451): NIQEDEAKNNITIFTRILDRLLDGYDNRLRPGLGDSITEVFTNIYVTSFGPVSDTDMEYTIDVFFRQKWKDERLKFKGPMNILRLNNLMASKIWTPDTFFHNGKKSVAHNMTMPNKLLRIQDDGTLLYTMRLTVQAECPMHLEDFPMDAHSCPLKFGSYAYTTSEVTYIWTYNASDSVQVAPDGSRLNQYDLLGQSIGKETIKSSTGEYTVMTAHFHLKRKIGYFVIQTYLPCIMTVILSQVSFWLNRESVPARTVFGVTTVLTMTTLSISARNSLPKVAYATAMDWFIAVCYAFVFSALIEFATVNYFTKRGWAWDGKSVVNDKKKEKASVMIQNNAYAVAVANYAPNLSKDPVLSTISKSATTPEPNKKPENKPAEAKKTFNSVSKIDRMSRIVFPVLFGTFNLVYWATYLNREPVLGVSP
T3 sequence (P28472 26-473 partner): as the sequence (P28472 26-473 partner) above
T3 sequence (P18507 40-475): as the sequence (P18507 40-475) above
T1 sequence (P31644 32-462): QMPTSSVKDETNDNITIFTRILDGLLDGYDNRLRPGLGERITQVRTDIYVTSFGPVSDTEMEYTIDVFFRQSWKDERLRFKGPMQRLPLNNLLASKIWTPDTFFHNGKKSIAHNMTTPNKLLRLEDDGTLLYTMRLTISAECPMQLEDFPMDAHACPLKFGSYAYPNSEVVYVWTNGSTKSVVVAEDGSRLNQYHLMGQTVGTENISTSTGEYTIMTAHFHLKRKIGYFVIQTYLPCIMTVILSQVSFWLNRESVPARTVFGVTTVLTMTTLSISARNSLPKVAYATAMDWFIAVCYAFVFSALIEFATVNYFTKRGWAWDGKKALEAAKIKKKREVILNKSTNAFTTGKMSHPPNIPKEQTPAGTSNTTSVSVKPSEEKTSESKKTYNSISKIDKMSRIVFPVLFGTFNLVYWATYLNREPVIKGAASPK
T1 sequence (P28472 26-473 partner): as the sequence (P28472 26-473 partner) above
T1 sequence (P18507 40-475): as the sequence (P18507 40-475) above
T2 sequence (P34903 29-492): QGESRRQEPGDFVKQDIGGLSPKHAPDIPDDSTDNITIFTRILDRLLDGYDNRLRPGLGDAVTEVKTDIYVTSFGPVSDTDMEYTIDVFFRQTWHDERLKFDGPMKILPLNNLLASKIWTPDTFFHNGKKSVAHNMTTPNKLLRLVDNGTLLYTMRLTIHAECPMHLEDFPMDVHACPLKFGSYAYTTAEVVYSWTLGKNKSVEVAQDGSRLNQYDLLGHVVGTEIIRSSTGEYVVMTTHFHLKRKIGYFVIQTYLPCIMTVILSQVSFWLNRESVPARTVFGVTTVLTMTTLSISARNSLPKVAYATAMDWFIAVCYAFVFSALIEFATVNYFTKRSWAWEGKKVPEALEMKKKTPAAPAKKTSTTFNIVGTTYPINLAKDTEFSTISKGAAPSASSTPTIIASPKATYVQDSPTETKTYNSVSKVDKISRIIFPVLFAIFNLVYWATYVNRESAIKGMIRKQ
T2 sequence (P28472 26-473 partner): as the sequence (P28472 26-473 partner) above
T2 sequence (P18507 40-475): as the sequence (P18507 40-475) above

Compound	activation at 0.1 µM [1]	% Inhibition at 1000 nM for CBZD [2]	activation at 0.1 µM [3]	activation at 0.1 µM [4]	activation at 0.1 µM [5]	Number of Shocks Mean ± S.E.M. ([6]; 0.3 mg/kg PO)	Number of Shocks Mean ± S.E.M. ([6]; 1 mg/kg PO)	Number of Shocks Mean ± S.E.M. ([6]; 3 mg/kg PO)	Number of Shocks Mean ± S.E.M. ([6]; 10 mg/kg PO)
Cc1cc(Cl)nc(NCc2c(-c3ccc(Cl)cc3)nc3ccc(Cl)cn23)n1 [Compound 170, 4-chloro-N-((6-chloro-2-(4-chlorophenyl)imidazo[1,2-a]pyridin-3-yl)methyl)-6-methylpyrimidin-2-amine]	-10 to 10%	++ (percentage of inhibition of central BZD site binding is greater than 80% in the presence of 1000 nM of the compound)	10 to 50%	10 to 50%	10 to 50%	5.1 ± 0.9	5.6 ± 0.9	6.5 ± 1.0	–
Clc1ccc(-c2nc3ccccn3c2Cn2ccnn2)cc1 [Compound 40, 2-(4-Chloro-phenyl)-3-[1,2,3]triazol-1-ylmethyl-imidazo[1,2-a]pyridine]	–	++ (percentage of inhibition of central BZD site binding is greater than 80% in the presence of 1000 nM of the compound)	–	10 to 50%	-10 to 10%	–	2.4 ± 0.4	3.4 ± 0.7	4.4 ± 0.7
